One experiment addresses Beta-galactosidase (Escherichia coli, UniProt Q8VNN2). In words: PubChem AID 485352. The class given is functional.
Experiment [1] has as its target T1, Type-1 angiotensin II receptor (Homo sapiens, UniProt P30556).
T1 sequence (P30556 whole entry): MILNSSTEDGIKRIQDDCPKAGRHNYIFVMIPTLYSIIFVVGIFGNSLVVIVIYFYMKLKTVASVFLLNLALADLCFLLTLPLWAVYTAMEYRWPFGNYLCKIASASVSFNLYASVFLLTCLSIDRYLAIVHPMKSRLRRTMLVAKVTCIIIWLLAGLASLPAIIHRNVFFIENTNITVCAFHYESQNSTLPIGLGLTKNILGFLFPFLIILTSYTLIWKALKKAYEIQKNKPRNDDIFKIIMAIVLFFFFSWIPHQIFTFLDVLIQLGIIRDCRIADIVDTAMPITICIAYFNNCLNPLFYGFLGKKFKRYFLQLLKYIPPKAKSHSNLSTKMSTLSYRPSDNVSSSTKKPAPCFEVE
In words: antagonism of angiotensin II type 1 receptor – cell-based, uHTS hits, selectivity assay for APJ receptor antagonist project, dose response (AID 463214).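 Further: antagonist potency against angiotensin II stimulated AT1 response.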 The experiment is classed as functional.

A short description of experiment [2]: Luminescence Cell-Based Dose Retest to Confirm Inhibitors of Cancer Stem Cells. [Related pubchem assays (depositor defined):AID2717, AID2721]. The experiment is classed as functional. The note with it: Homo sapiens.
The subject of the next experiment is INS1. Kind of experiment: INS-1E survival protection against cytokine death – cell-based, luminescence, retest, dose response (AID 449756).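 Further: cell death triggered by IL-1 beta plus TNF-alpha plus IFN-gamma mixture; protective hits raise ATP signal compared with cytokine alone wells.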 The class given is functional. Particulars: Rattus norvegicus.
The next experiment deals with H9c2. In words: cells. The class given is functional, cell-based. Particulars: Rattus norvegicus, H9c2, Myocardium.
The test system of the next experiment is Jurkat. Kind of experiment: SAR Analysis of small molecule inhibitors of […] specific antigen receptor-induced NF-kB activation in a Jurkat cell line using a luminescence assay - Set 3. [Related pubchem assays (depositor defined):AID435022, AID435025, AID465]. The experiment is classed as functional, cell-based. Particulars: Homo sapiens.
The subject of experiment [3] is HEK293. In words: SAR Analysis of small molecule inhibitors of B-cell specific antigen receptor-induced NF-kB activation in a HEK-293T cell line using a luminescence assay - Set 2. [Related pubchem assays (depositor defined):AID435022, AID435025, AID489021]. The class given is functional, cell-based. Particulars: Homo sapiens.
The test system of experiment [4] is HEK293. Kind of experiment: HEK293T cell viability loss, resazurin readout – resazurin fluorescence, cytotoxicity control for NF-kB activator project, SAR follow-up (AID 493251). The experiment is classed as functional, cell-based. Particulars: Homo sapiens.
Experiment [5] has as its target T2, Calpain-2 catalytic subunit (Sus scrofa, UniProt P43367).
T2 sequence (P43367 whole entry): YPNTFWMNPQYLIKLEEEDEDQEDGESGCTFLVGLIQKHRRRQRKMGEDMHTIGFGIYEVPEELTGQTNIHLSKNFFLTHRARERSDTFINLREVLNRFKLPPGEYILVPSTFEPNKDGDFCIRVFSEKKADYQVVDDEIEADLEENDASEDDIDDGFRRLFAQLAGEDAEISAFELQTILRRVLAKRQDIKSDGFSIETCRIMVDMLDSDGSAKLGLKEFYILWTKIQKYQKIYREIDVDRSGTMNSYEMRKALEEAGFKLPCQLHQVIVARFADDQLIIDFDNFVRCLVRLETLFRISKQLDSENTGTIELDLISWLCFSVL
Kind of experiment: m-calpain protease blockers, concentration series – biochemical, fluorogenic peptide substrate, dose response (AID 1420). The class given is functional.

The next experiment has as its target T3, Caspase-3 (Homo sapiens, UniProt P42574).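 Further: Dose-response selectivity test against caspase-3 for candidate inhibitors of sentrin-specific proteases (SENPs).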
T3 sequence (P42574 whole entry): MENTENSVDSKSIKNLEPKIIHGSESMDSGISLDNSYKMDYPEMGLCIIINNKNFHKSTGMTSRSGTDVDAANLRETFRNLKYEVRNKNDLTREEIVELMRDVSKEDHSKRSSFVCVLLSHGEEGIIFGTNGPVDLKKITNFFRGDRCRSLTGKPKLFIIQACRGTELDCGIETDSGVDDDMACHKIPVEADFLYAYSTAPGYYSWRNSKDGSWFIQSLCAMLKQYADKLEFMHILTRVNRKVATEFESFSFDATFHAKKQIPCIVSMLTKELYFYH
The class given is functional.

For experiment [6], the target named is T4, Sentrin-specific protease 7 (Homo sapiens, UniProt Q9BQF6).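 Further: Luminescence-based dose-response confirmation of ultra-high-throughput screening hits, measuring inhibition of SENP7.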
T4 sequence (Q9BQF6 whole entry): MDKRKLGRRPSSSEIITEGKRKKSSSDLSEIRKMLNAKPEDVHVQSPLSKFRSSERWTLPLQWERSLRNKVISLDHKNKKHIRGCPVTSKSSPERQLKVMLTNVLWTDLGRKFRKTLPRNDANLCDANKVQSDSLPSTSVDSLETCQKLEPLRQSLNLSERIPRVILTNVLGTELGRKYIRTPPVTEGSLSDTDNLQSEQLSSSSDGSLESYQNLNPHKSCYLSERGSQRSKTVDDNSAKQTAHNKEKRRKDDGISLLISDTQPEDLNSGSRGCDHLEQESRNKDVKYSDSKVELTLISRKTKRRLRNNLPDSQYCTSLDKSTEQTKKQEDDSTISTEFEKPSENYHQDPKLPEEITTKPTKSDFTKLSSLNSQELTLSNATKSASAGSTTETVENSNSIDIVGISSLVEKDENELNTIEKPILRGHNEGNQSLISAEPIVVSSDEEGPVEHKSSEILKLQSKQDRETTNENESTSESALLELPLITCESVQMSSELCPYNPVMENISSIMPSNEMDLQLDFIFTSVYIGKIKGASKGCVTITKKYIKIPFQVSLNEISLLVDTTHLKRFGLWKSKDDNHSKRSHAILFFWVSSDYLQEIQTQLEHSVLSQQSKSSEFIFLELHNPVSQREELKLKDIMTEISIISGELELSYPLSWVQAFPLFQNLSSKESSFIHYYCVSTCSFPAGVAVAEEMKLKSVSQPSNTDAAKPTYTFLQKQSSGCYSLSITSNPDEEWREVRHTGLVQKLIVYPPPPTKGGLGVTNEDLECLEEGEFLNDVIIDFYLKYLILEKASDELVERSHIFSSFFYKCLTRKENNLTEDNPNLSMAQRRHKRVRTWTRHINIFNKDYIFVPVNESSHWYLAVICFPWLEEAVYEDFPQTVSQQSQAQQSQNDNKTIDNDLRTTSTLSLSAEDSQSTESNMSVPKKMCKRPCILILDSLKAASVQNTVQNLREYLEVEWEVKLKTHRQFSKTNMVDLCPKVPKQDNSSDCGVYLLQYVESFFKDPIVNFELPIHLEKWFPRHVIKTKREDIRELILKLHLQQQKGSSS
The class given is functional.

In experiment [7] the target is T5, Sentrin-specific protease 6 (Homo sapiens, UniProt Q9GZR1).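 Further: Luminescence-based dose-response confirmatory assay of SENP6 inhibition, following up an ultra-high-throughput screen.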
T5 sequence (Q9GZR1 whole entry): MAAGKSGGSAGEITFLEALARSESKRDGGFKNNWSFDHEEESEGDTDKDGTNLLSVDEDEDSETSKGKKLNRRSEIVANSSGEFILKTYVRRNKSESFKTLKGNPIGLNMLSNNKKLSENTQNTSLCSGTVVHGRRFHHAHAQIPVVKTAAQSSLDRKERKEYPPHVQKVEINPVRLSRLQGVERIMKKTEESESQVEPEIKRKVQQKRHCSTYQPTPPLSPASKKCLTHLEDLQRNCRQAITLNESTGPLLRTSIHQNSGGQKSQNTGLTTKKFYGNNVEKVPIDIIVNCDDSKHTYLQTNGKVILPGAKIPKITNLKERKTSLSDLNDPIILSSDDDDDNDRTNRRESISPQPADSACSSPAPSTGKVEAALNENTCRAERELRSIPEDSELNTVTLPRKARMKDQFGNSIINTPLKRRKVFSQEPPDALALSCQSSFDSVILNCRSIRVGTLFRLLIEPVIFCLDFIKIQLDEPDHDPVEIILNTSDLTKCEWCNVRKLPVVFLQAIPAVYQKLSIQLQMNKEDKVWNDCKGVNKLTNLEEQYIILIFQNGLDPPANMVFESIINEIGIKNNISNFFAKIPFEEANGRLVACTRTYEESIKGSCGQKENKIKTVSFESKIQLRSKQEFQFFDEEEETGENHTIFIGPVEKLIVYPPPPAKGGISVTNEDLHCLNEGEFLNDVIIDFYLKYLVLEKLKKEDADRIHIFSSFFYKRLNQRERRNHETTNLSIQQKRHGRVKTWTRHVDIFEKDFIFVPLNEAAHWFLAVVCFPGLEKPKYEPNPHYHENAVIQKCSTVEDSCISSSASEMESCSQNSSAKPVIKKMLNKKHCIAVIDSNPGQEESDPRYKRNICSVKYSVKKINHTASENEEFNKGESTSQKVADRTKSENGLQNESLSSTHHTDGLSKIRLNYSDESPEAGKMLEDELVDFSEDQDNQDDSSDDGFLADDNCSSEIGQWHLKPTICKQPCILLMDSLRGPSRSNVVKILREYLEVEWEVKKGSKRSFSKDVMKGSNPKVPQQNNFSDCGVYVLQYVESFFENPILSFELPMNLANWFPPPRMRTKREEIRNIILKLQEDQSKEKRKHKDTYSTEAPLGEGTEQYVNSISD
The experiment is classed as functional.

The target of experiment [8] is T6, Sentrin-specific protease 8 (Homo sapiens, UniProt Q96LD8).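 Further: luminescence read-out of SENP8 inhibition, dose-response confirmation following an ultra-high-throughput screen.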
T6 sequence (Q96LD8 whole entry): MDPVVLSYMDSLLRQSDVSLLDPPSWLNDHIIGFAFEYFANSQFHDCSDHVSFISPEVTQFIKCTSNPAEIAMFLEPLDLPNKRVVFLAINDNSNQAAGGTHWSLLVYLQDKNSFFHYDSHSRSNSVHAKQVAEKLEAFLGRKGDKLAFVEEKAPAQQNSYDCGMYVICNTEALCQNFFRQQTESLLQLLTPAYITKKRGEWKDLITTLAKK
The experiment is classed as functional.

Experiment [9] relates to HEK293. Kind of experiment: cells. The class given is functional, cell-based. Particulars: Homo sapiens.
For experiment [10], the target named is T7, Nuclear receptor subfamily 0 group B member 1 (Homo sapiens, UniProt P51843).
T7 sequence (P51843 whole entry): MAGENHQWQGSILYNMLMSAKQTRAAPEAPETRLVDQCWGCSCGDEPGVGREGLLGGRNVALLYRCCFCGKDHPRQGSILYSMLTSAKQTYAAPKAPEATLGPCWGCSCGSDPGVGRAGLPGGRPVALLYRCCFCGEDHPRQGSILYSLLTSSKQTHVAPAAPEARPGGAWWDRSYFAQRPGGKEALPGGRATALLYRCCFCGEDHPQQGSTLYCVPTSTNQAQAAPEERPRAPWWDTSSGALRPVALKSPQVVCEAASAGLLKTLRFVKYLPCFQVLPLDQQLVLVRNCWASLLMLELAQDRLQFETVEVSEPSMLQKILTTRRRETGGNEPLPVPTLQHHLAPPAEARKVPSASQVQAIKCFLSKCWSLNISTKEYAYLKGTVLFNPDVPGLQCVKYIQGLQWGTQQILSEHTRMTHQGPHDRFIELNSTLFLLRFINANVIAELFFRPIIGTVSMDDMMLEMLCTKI
Kind of experiment: Luminescence-based cell-based high throughput dose response assay for inhibitors of the orphan nuclear receptor subfamily 0, group B, member 1 (DAX1; NR0B1). [Related pubchem assays (depositor defined):AID504766, AID504790]. The experiment is classed as functional.

Among the data in ChEMBL document CHEMBL1201862, “PubChem BioAssay data set” (2004) are EC50, IC50 and AC50 values, retold here.

Structures are written as SMILES. The source made the active and inactive calls.

Beta-galactosidase, sequence (Q8VNN2 whole entry): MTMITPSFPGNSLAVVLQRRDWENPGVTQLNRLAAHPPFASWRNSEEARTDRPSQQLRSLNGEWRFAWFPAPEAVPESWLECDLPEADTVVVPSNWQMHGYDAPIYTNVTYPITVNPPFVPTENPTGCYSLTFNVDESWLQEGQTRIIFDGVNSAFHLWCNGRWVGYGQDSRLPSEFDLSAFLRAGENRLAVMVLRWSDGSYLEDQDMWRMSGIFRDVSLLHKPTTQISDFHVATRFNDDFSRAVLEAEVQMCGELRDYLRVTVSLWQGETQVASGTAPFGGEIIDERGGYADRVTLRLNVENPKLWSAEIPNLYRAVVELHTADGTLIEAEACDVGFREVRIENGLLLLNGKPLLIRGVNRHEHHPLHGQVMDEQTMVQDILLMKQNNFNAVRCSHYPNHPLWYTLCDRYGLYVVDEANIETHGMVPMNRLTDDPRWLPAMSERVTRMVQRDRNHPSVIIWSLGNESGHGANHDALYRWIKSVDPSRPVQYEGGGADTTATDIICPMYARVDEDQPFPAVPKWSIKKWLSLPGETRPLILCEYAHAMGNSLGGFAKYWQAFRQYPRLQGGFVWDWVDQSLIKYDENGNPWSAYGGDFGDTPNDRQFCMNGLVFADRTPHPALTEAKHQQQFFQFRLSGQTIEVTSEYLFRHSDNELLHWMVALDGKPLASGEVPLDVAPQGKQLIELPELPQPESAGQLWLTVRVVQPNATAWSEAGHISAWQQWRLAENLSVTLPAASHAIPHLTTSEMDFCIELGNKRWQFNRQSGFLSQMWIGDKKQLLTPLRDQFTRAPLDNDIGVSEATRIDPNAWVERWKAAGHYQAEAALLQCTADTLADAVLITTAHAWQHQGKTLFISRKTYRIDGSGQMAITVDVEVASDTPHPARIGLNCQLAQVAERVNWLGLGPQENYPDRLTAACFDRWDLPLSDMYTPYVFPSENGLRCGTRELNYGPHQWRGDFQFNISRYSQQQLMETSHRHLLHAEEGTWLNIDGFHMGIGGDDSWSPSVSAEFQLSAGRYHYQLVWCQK

With `CC1(C)Cc2c(c(N3CCOCC3)nc3sc4c(NN)ncnc4c23)CS1`, the EC50 on Beta-galactosidase is > 40 µM (inactive). The IC50 was 16.8 µM (active) in experiment [1] and 10 µM (active) in the experiment with H9c2. The values for the half-maximal activity concentration (AC50) (in experiment [2]; in the experiment with INS1) were 7.43 µM (active) and 2.08 µM (active), respectively.
For the compound `CCOc1ccc(-c2nc(CSCC(=O)NCc3ccc(C)cc3)c(C)o2)cc1`, the values for the IC50 in the experiment with Jurkat, in the experiment with HEK293 [3] and in the experiment with HEK293 [4] were 48.9 µM (inactive), > 80 µM (inactive) and > 80 µM (inactive), respectively.
Regarding `CCN(CC)c1ccc(C(=O)NC(=S)Nc2cc(S(=O)(=O)N3CCOCC3)ccc2-n2cncn2)cc1`, on Beta-galactosidase, the EC50 is > 40 µM (inactive). Moreover, the IC50 in experiment [1] was > 40 µM (not active); in experiment [5], 9.89 µM (not active).
For the compound `CCSc1nnc(NC(=O)c2ccc(C)cc2)s1`, the IC50 at Caspase-3 is 28 µM (active); in experiment [6], 9.7 µM (active); in experiment [7] it was > 100 µM (inactive); in experiment [8], > 100 µM (inactive).
Take `Cc1ccc2[nH]c(-c3ccc(NC(=O)c4ccco4)cc3)nc2c1`: the half-maximal inhibitory concentration (IC50) on Caspase-3 was 29.6 µM (active); in experiment [6], 6.23 µM (active); in experiment [7], > 100 µM (inactive); in [8], 30.8 µM (active).
As for `C=CCNC(=O)CCc1nc(-c2ccc(C(C)(C)C)cc2)no1`, the IC50 in the experiment on Jurkat was 25.2 µM (inactive); with HEK293 [3], 5.3 µM (active); in the experiment with HEK293 [4], > 80 µM (inactive).
As to `C/C(=N\NC(=S)NC1CCCCC1)c1ccc(Cl)c(Cl)c1`, the IC50 (in the experiment on HEK293 [9]; in [10]) was > 67.5 µM (inactive) throughout.
As for `COc1ccccc1/C=N\Nc1ccccc1[N+](=O)[O-]`, the IC50 (with HEK293 [9]; in experiment [10]) was > 67.6 µM (inactive) in each case.
